# According to PubChem BioAssay (NCI):
#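 Values below derive from 48-hour exposures of cells grown in 96-well plates, with endpoints linearly interpolated between the two concentrations bracketing the appropriate inhibition level. TGI denotes the concentration required for complete inhibition of growth.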
# What was measured:
# Experiment in all cases: DTP human tumour cell line panel, 48 h
# HCT-15 colon = system: HCT-15 colon
# DLD-1 colon = system: DLD-1 colon
# HOP-62 NSCLC = system: HOP-62 NSCLC
# M14 melanoma = system: M14 melanoma
# HCT-116 colon = system: HCT-116 colon
# EKVX NSCLC = system: EKVX NSCLC
# HOP-92 NSCLC = system: HOP-92 NSCLC
# SNB-19 CNS = system: SNB-19 CNS
# SK-OV-3 ovarian = system: SK-OV-3 ovarian
# LXFL 529 NSCLC = system: LXFL 529 NSCLC
# M19-MEL melanoma = system: M19-MEL melanoma
# OVCAR-3 ovarian = system: OVCAR-3 ovarian
# SK-MEL-5 melanoma = system: SK-MEL-5 melanoma
# OVCAR-4 ovarian = system: OVCAR-4 ovarian
# KM12 colon = system: KM12 colon
# TK-10 renal = system: TK-10 renal
# SW-620 colon = system: SW-620 colon
# NCI-H460 lung = system: NCI-H460 lung
# 786-0 renal = system: 786-0 renal
# HT29 colon = system: HT29 colon
# SF-268 CNS = system: SF-268 CNS
# HL-60(TB) leukemia = system: HL-60(TB) leukemia
# U251 CNS = system: U251 CNS
# UACC-257 melanoma = system: UACC-257 melanoma
# RXF 393 renal = system: RXF 393 renal
# A498 renal = system: A498 renal
# CAKI-1 renal = system: CAKI-1 renal
# HOP-18 NSCLC = system: HOP-18 NSCLC
# SF-539 CNS = system: SF-539 CNS
# SK-MEL-28 melanoma = system: SK-MEL-28 melanoma
# ACHN renal = system: ACHN renal
# IGROV1 ovarian = system: IGROV1 ovarian
# NCI-H522 lung = system: NCI-H522 lung
# DMS 114 small cell lung = system: DMS 114 small cell lung
# SF-295 CNS = system: SF-295 CNS
# COLO 205 colon = system: COLO 205 colon
# K-562 leukemia = system: K-562 leukemia
# A549 NSCLC = system: A549 NSCLC
# DMS 273 small cell lung = system: DMS 273 small cell lung
# SN12C renal = system: SN12C renal
# KM20L2 colon = system: KM20L2 colon
# HCC-2998 colon = system: HCC-2998 colon
# SK-MEL-2 melanoma = system: SK-MEL-2 melanoma
# LOX IMVI melanoma = system: LOX IMVI melanoma
# UACC-62 melanoma = system: UACC-62 melanoma
# SNB-75 CNS = system: SNB-75 CNS
# OVCAR-8 ovarian = system: OVCAR-8 ovarian
# XF 498 CNS = system: XF 498 CNS
# CCRF-CEM leukemia = system: CCRF-CEM leukemia
# MALME-3M melanoma = system: MALME-3M melanoma
# OVCAR-5 ovarian = system: OVCAR-5 ovarian
# UO-31 renal = system: UO-31 renal
# SNB-78 CNS = system: SNB-78 CNS
# NCI-H23 lung = system: NCI-H23 lung
# MOLT-4 leukemia = system: MOLT-4 leukemia
# NCI-H226 lung = system: NCI-H226 lung
# RXF-631 renal = system: RXF-631 renal
# SR leukemia = system: SR leukemia
# RPMI-8226 leukemia = system: RPMI-8226 leukemia
smiles,measurement,setting,value
N[C@H](C(=O)O)[C@H](Cl)CC(=O)O,TGI,HCT-15 colon,> 100 µM
same,TGI,DLD-1 colon,> 100 µM
same,TGI,HOP-62 NSCLC,> 100 µM
same,TGI,M14 melanoma,> 100 µM
same,TGI,HCT-116 colon,> 100 µM
same,TGI,EKVX NSCLC,> 100 µM
same,TGI,HOP-92 NSCLC,> 100 µM
same,TGI,SNB-19 CNS,> 100 µM
same,TGI,SK-OV-3 ovarian,> 100 µM
same,TGI,LXFL 529 NSCLC,> 100 µM
same,TGI,M19-MEL melanoma,> 100 µM
same,TGI,OVCAR-3 ovarian,> 100 µM
same,TGI,SK-MEL-5 melanoma,> 100 µM
same,TGI,OVCAR-4 ovarian,> 100 µM
same,TGI,KM12 colon,> 100 µM
same,TGI,TK-10 renal,> 100 µM
same,TGI,SW-620 colon,> 100 µM
same,TGI,NCI-H460 lung,> 100 µM
same,TGI,786-0 renal,> 100 µM
same,TGI,HT29 colon,> 100 µM
same,TGI,SF-268 CNS,> 100 µM
same,TGI,HL-60(TB) leukemia,> 100 µM
same,TGI,U251 CNS,> 100 µM
same,TGI,UACC-257 melanoma,> 100 µM
same,TGI,RXF 393 renal,> 100 µM
same,TGI,A498 renal,> 100 µM
same,TGI,CAKI-1 renal,> 100 µM
same,TGI,HOP-18 NSCLC,> 100 µM
same,TGI,SF-539 CNS,> 100 µM
same,TGI,SK-MEL-28 melanoma,> 100 µM
same,TGI,ACHN renal,> 100 µM
same,TGI,IGROV1 ovarian,> 100 µM
same,TGI,NCI-H522 lung,> 100 µM
same,TGI,DMS 114 small cell lung,> 100 µM
same,TGI,SF-295 CNS,> 100 µM
same,TGI,COLO 205 colon,> 100 µM
same,TGI,K-562 leukemia,> 100 µM
same,TGI,A549 NSCLC,> 100 µM
same,TGI,DMS 273 small cell lung,> 100 µM
same,TGI,SN12C renal,> 100 µM
same,TGI,KM20L2 colon,> 100 µM
same,TGI,HCC-2998 colon,> 100 µM
same,TGI,SK-MEL-2 melanoma,> 100 µM
same,TGI,LOX IMVI melanoma,> 100 µM
same,TGI,UACC-62 melanoma,> 100 µM
same,TGI,SNB-75 CNS,> 100 µM
same,TGI,OVCAR-8 ovarian,> 100 µM
same,TGI,XF 498 CNS,> 100 µM
same,TGI,CCRF-CEM leukemia,> 100 µM
same,TGI,MALME-3M melanoma,> 100 µM
same,TGI,OVCAR-5 ovarian,> 100 µM
same,TGI,UO-31 renal,> 100 µM
same,TGI,SNB-78 CNS,> 100 µM
same,TGI,NCI-H23 lung,> 100 µM
same,TGI,MOLT-4 leukemia,> 100 µM
same,TGI,NCI-H226 lung,> 100 µM
COc1cccc(C2c3cc4c(cc3OC(O)(CO)C2C(=O)O)OCO4)c1 (stereo not given) (tested in a mixture with another compound),TGI,HCT-15 colon,> 100 µM
same,TGI,DLD-1 colon,> 100 µM
same,TGI,HOP-62 NSCLC,> 100 µM
same,TGI,M14 melanoma,> 100 µM
same,TGI,HCT-116 colon,> 100 µM
same,TGI,EKVX NSCLC,> 100 µM
same,TGI,HOP-92 NSCLC,79.9 µM
same,TGI,SK-OV-3 ovarian,> 100 µM
same,TGI,LXFL 529 NSCLC,> 100 µM
same,TGI,M19-MEL melanoma,> 100 µM
same,TGI,OVCAR-3 ovarian,> 100 µM
same,TGI,SK-MEL-5 melanoma,> 100 µM
same,TGI,RXF-631 renal,> 100 µM
same,TGI,OVCAR-4 ovarian,> 100 µM
same,TGI,KM12 colon,> 100 µM
same,TGI,TK-10 renal,> 100 µM
same,TGI,SW-620 colon,> 100 µM
same,TGI,NCI-H460 lung,49 µM
same,TGI,786-0 renal,> 100 µM
same,TGI,HT29 colon,> 100 µM
same,TGI,SR leukemia,> 100 µM
same,TGI,SF-268 CNS,> 100 µM
same,TGI,HL-60(TB) leukemia,75.4 µM
same,TGI,U251 CNS,62.2 µM
same,TGI,UACC-257 melanoma,> 100 µM
same,TGI,RXF 393 renal,> 100 µM
same,TGI,A498 renal,> 100 µM
same,TGI,HOP-18 NSCLC,> 100 µM
same,TGI,SF-539 CNS,> 100 µM
same,TGI,SK-MEL-28 melanoma,79.8 µM
same,TGI,ACHN renal,> 100 µM
same,TGI,IGROV1 ovarian,> 100 µM
same,TGI,DMS 114 small cell lung,> 100 µM
same,TGI,SF-295 CNS,> 100 µM
same,TGI,COLO 205 colon,> 100 µM
same,TGI,K-562 leukemia,> 100 µM
same,TGI,A549 NSCLC,> 100 µM
same,TGI,DMS 273 small cell lung,> 100 µM
same,TGI,SN12C renal,> 100 µM
same,TGI,KM20L2 colon,> 100 µM
same,TGI,HCC-2998 colon,> 100 µM
same,TGI,SK-MEL-2 melanoma,> 100 µM
same,TGI,LOX IMVI melanoma,> 100 µM
same,TGI,UACC-62 melanoma,> 100 µM
same,TGI,SNB-75 CNS,54 µM
same,TGI,OVCAR-8 ovarian,> 100 µM
same,TGI,CCRF-CEM leukemia,> 100 µM
same,TGI,MALME-3M melanoma,> 100 µM
same,TGI,OVCAR-5 ovarian,> 100 µM
same,TGI,UO-31 renal,> 100 µM
same,TGI,NCI-H23 lung,> 100 µM
same,TGI,MOLT-4 leukemia,> 100 µM
same,TGI,RPMI-8226 leukemia,> 100 µM
same,TGI,NCI-H226 lung,> 100 µM
